{"source": "patent US20020142287A1", "about": "“High throughput assay to detect inhibitors of the map kinase pathway” (priority 2000, published 2002)", "key": {"[1]": {"system": "SNB-19 cells", "assay": "Growth-stimulated induction of c-fos and invasion-associated mRNA in quiescent cells plated into fresh growth media, Northern analysis", "type": "cell-based, human", "details": "for effect on expression of uPA, GnT-V and c-ets-1 mRNA induced by growth stimulation: 2 and 6 hr after plating into fresh growth media", "experimental": "(§1) Procedure for Northern Blot. Surgical specimens were immediately frozen in liquid nitrogen upon resection. Total RNA was isolated from clinical glioma specimens and cultured brain tumor cells using guanidium isothiocyanate followed by […] centrifugation. 10-20 μg of total RNA per tumor cell line per lane were electrophoresed in an agarose-formaldehyde gel and transferred to Duralon nylon membranes (Stratagene, La Jolla, Calif.). After UV cross-linking, the blots were hybridized with a ^32P-radiolabeled cDNA probe synthesized by using a random priming kit (Stratagene, La Jolla, Calif.) and ExpressHyb solution (Clontech, Palo Alto, Calif.). The blots were then exposed to X-OMAT film (Kodak, Rochester, N.Y.) and the films were developed appropriately.\nModulators of the MAPK pathway also modulated the growth-stimulated mRNA expression of c-Fos and invasion-related protein MRNA expression. Quiescent SNB-19 cells were plated in fresh growth media either in the presence of 80 μM PD98059, a MEK/MAPKK inhibitor, or the absence of inhibitor, as a control. Induction was measured by observing MRNA expression over time (FIG. 6).\nQuiescent SNB-19 cells were growth induced by plating into fresh growth media for 2 and 6 hr. c-Fos expression was monitored by observing the mRNA levels of the downstream genes uPA, GNT-V, and c-ets-1 (see FIG. 8)."}, "[2]": {"system": "MEK/MAPK Kinase (MAPKK)", "details": "cited from earlier work"}, "[3]": {"system": "p42/p44 ERK/MAPK proteins", "details": "50 μM U0126, SNB-19 cells", "experimental": "Quiescent SNB-19 cells were plated into fresh growth media and incubated for 0.5, 1, 2, 3, 4, 6, and 8 hr, and the cells were harvested for Northern analysis (FIG. 10A-10C) and Western blot analysis (FIG. 10D)."}, "[4]": {"system": "SNB-19 glioma cells", "details": "data not shown"}, "[5]": {"system": "c-fos promoter/luciferase gene transfectant (clone 60) of SNB-19 glioma cells", "assay": "Luciferase mRNA expression in stable c-fos promoter/luciferase gene transfectant, Northern analysis", "type": "cell-based, human", "details": "1, 2, 3, 6, and 24 hr in the presence of inhibitor", "experimental": "A quiescent c-fos promoter/luciferase gene transfectant (clone 60) was plated into fresh growth media and incubated for 1, 2, 3, 6, and 24 hr in the presence of MEK/MAPKK inhibitors, and the cells were harvested for detection of luciferase mRNA expression by Northern analysis. 10 μg of total RNA per lane were used.\nThe 498 bp promoter region of the human c-Fos gene was amplified by genomic PCR using sense primer 5′-[…]-3′ (SEQ ID No. 7) and antisense primer 5′-[…]-3′ (SEQ ID No. 8), ligated into the pCR II vector (Invitrogen, San Diego, Calif.). […] Antisense orientation of the c-fos promoter/pCR II plasmid was digested with Hind III and Xho I restriction enzymes and the digested fragment was ligated into the Hind III and Xho I sites of the luciferase vector pGL3-basic (Promega, Madison, Wis.). The c-fos promoter/pGL3 plasmid DNA was digested with Sma I and Xba I and the digested fragment was ligated into the Nru I and Xba I sites of the pcDNA 3 vector (Invitrogen). This final construct contains the luciferase gene under control of the c-fos promoter instead of the control of the CMV promoter. The plasmid DNA was stably transfected into human glioma SNB-19 cells using the cationic liposome system, DOTAP (Boehringer Mannheim, Indianapolis, Ind.). The transfected cells were further cultured for 3 weeks in selection medium containing 800 μg/ml of G418 and then individual clones were isolated with cloning rings. Isolated clones were further cultured for 4 weeks in selection medium and were examined for luciferase gene expression by Northern analysis. […] Three representative clones (34, 56, and 60) were further characterized.\nThe suppression of luciferase gene expression by inhibitors of MAPK pathway in the stable transfectants was determined."}, "[6]": {"system": "c-Fos protein in SNB-19 cells", "assay": "Growth-stimulated c-Fos protein induction, Western blot", "type": "cell-based, human", "details": "50 μM U0126, 1 μM FTI, 50 μM PD98059; for c-Fos protein induction: 0.5-8 hr after plating", "experimental": "Quiescent SNB-19 cells were plated into fresh growth media and incubated for 0.5, 1, 2, 3, 4, 6, and 8 hr in the presence of inhibitors of the MAPK pathway, and the cells were harvested for c-Fos protein analysis by Western blot. 20 μg of total protein per lane were used. c-Fos protein induction without inhibitors was shown as a control.\nProcedure for Western Blot. To detect c-Ets-1 and c-Fos protein expression in brain tumor cell lines, 20 μg of protein cell lysates were loaded on a 8% SDS-polyacrylamide gel immediately after boiling each sample in the presence of 2% mercaptoethanol. After electrophoresis, proteins were transferred to a PVDF membrane and the membrane was blocked with 5% BSA in PBS. The membrane was then incubated with either a 1:10,000 dilution of monoclonal anti-human c-Ets-1 antibody (Clone 47, Transduction Laboratory, Ky.) or anti-human c-Fos antibody (Santa Cruz Biotechnology, Inc.) in Tris-buffered saline pH 7.4 (TBS) containing 2% BSA and 0.1% Tween 20 for 1 h at room temperature. The membrane was then washed with TBS containing 2% BSA and 0.1% Tween 20 for 10 min, followed by washing twice with 0.1% Tween 20 in TBS. Next, the membrane was incubated with a 1:10000 dilution of horseradish peroxidase-conjugated anti-mouse IgG (Amersham, UK) for 1 h at room temperature in 2% BSA in TBS containing 0.1% Tween 20. The membrane was then washed as described above, and developed with the ECL Chemiluminescence detection system (Amersham, UK) according to manufacturer's instructions."}, "[7]": {"system": "SNB-19 cells", "assay": "Induction of invasion-associated gene mRNA by phorbol ester, Northern analysis", "type": "cell-based, human", "details": "150 nM PDBu, 24 hr incubation", "experimental": "as §1\nThe effects of a test compound, a phorbol ester (a Protein Kinase C (PKC) activator), on the coordinated expression of a panel of sequences was determined. SNB-19 cells were cultured in the presence of 150 nM phorbol 12, 13-dibutyrate (PDBu, Sigma Chemical Co.) for 24 hr. Expression of GnT-V, c-ets-1, uPA, MMP-1, and MMP-3 mRNA was then assayed by northern blot on total RNA from the cells. A panel of nucleic acid probes corresponding to GnT-V, c-ets-1, uPA, MMP-1, and MMP-3 were prepared as described above and utilized to detect expression of the corresponding mRNA in treated or untreated SNB-19 cells. […]"}, "[8]": {"system": "SNB-19 cells", "assay": "Suppression of PDBu-mediated mRNA induction by a MAPKK inhibitor, Northern analysis", "type": "cell-based, human", "experimental": "as §1\nThe assay was modified for use in the identification of compounds that can inhibit gene expression. To identify compounds that may affect the growth, migration or invasivity of tumor cells, the assay described below is provided. To activate the quiescent cells, SNB-19 glioma cells are cultured in the presence of 150 nM Phorbol 12, 13-dibutyrate (PDBu, Sigma Chemical Co.) for 24 hr. The cells are then contacted with a test compound that may affect expression of GnT-V, c-ets-1, uPA, MMP-1, or MMP-3. Compounds shown to inhibit expression of any, multiple, or all of the sequences are selected for further study. […]"}}, "note": "Entries after “also recorded” stand apart in the source; their conditions may differ."}
{"compound": "COC[C@H]1OC(=O)c2coc3c2[C@@]1(C)C1=C(C3=O)[C@@H]2CCC(=O)[C@@]2(C)C[C@H]1OC(C)=O", "note": "[Wortmannin]", "values": [{"measurement": "effect on expression of uPA, GnT-V and c-ets-1 mRNA induced by growth stimulation", "setting": "[1]", "value": "no effect"}]}
{"compound": "N#CC(=C(/N)Sc1ccccc1N)/C(C#N)=C(\\N)Sc1ccccc1N", "note": "[U0126]", "values": [{"measurement": "growth-stimulated induction of GnT-V, uPA and c-ets-1 mRNA expression", "setting": "[1]; 50 μM U0126, 0.5-8 hr after plating into fresh growth media", "value": "strongly suppressed; also recorded: suppressed the induction"}, {"measurement": "potency as MEK/MAPKK inhibitor relative to PD98059", "setting": "[2]", "value": 30, "unit": "times"}, {"measurement": "phosphorylation of p42/p44 ERK/MAPK", "setting": "[3]", "value": "completely inhibited"}, {"measurement": "adhesion-mediated protein tyrosine phosphorylation", "setting": "[4]", "value": "little effect"}, {"measurement": "luciferase mRNA expression", "setting": "[5]", "value": "greatly suppressed; also recorded: greater inhibition"}, {"measurement": "potency of inhibition of c-Fos protein induction (rank order)", "setting": "[6]", "value": "50 μM U0126>1 μM FTI>50 μM PD98059"}, {"measurement": "c-Fos protein induction", "setting": "[6]", "value": "completely inhibited"}]}
{"compound": "COc1cc2ncnc(Nc3cccc(Br)c3)c2cc1OC", "note": "[PD153035]", "values": [{"measurement": "effect on expression of uPA, GnT-V and c-ets-1 mRNA induced by growth stimulation", "setting": "[1]", "value": "no effect"}]}
{"compound": "CCCC(=O)O[C@@H]1[C@@H](C)[C@@]2(O)[C@@H](C=C(CO)C[C@]3(O)C(=O)C(C)=C[C@@H]23)[C@@H]2C(C)(C)[C@]12OC(=O)CCC", "note": "[PDBu, Phorbol 12, 13-dibutyrate]", "values": [{"measurement": "induction of GnT-V, c-ets-1, uPA, MMP-1, and MMP-3 mRNA expression", "setting": "[7]", "value": "marked induction; also recorded: induced"}]}
{"compound": "COc1cccc(-c2cc(=O)c3ccccc3o2)c1N", "note": "[PD98059, 2′-amino-3′-methoxyflavone]", "values": [{"measurement": "growth-stimulated induction of c-fos, c-ets-1, GnT-V, and uPA mRNA expression", "setting": "[1]; 80 μM PD98059, 0.5-8 hr after plating into fresh growth media", "value": "suppression; also recorded: suppressed"}, {"measurement": "luciferase mRNA expression", "setting": "[5]", "value": "slightly suppressed"}, {"measurement": "luciferase mRNA expression", "setting": "[5]; listed as PD98056", "value": "suppress"}, {"measurement": "potency of inhibition of c-Fos protein induction (rank order)", "setting": "[6]", "value": "50 μM U0126>1 μM FTI>50 μM PD98059"}, {"measurement": "c-Fos protein induction", "setting": "[6]", "value": "weak suppression"}, {"measurement": "PDBu-induced GnT-V, c-ets-1, MMP-1, and MMP-3 mRNA induction (b19 also uPA)", "setting": "[8]; 150 nM PDBu 24 hr, 15 and 80 μM PD98059, 15 μM", "value": "completely abolished"}, {"measurement": "uPA mRNA expression in PDBu-stimulated cells", "setting": "[8]; 150 nM PDBu, PD98059 15 and 80 μM", "value": "decreased in a dose-dependent manner"}]}
